Structures are written as SMILES.

Series [1] is described as follows: Dissolution test under sink condition. Type of series: physicochemical. The following applies: deionized water with 0.3% (w/v) SDS, 900 mL, 37 °C, 100 rpm, 20 mg FNB. As for the experimental part:
The dissolution test under sink condition was conducted utilizing a ZRS-8G dissolution tester equipped with USP paddle apparatus (TDTF, Tianjin, China) at 37 °C and 100 rpm. […] Aliquot release medium (5 mL) was withdrawn at predetermined time intervals and an equal volume of fresh medium was added to compensate the sampling loss. The obtained samples were filtered through a 0.22 μm microporous membrane, and determined at 288 nm by UV spectrophotometry (TU-1901, Beijing, China).

Series [2] can be described thus: Water contact angle of compressed powder (wettability). Type of series: physicochemical. The conditions noted are these: pure water drop on compressed slice, Mean ± S.D., n = 3. Here is the method:
Powdered materials of different formulations were measured for angle of repose applying a BT 1000 powder analyzer (DanDong Better size Instruments, China). The wettability of the powders was evaluated using a contact angle analyzer (Dataphysics OCA-35, Filderstadt, Germany). Prior to measurement, 300 mg of powder was dried and then compressed into a slice with a diameter size of approximately 12 mm under a pressure of 10 MPa for one minute. […] The dynamic wetting angle was recorded using a video system at the speed of 6 frames/min.

Take `CC(C)OC(=O)C(C)(C)Oc1ccc(C(=O)c2ccc(Cl)cc2)cc1` [FNB, Fenofibrate]: the “drug release after 5 min” value in series [1] is 5.42%. The same compound displayed a Contact angle in series [2] of 87.2 ± 0.4 °.

For the origin of these results see publication PMC7580725 (Drug Delivery, 2020).
